Data taken from ChEMBL document CHEMBL1201862, “PubChem BioAssay data set” (2004).
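Test compounds were applied to cells in 96-well plates for 48 hours at 5 doses. Here, GI50 denotes the concentration required for 50% inhibition of growth.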 Active and inactive are the calls of the source. No stated cut-off is given here; in the data, active = GI50 up to about 1.1 µM and inactive = higher.

Key:
Assay in all cases: NCI anticancer screen, dose series, 48 h
DLD-1 = system: DLD-1
DMS-273 = system: DMS-273
HOP-18 = system: HOP-18
KM-20L2 = system: KM-20L2
LXFL 529 = system: LXFL 529
RXF 631 = system: RXF 631
SNB-78 = system: SNB-78
XF498 = system: XF498
M19-MEL = system: M19-MEL

Compound | GI50 (DLD-1) | GI50 (DMS-273) | GI50 (HOP-18) | GI50 (KM-20L2) | GI50 (LXFL 529) | GI50 (RXF 631) | GI50 (SNB-78) | GI50 (XF498) | GI50 (M19-MEL)
Cn1c2c([N+](=O)[O-])[se]nc2c(=O)n1-c1ccc([N+](=O)[O-])cc1 | 0.746 µM (active) | 2.5 µM (inactive) | 2.82 µM (inactive) | 6.9 µM (inactive) | 1.25 µM (inactive) | 1.5 µM (inactive) | 1.99 µM (inactive) | 2.26 µM (inactive) | –
Cn1c(=O)nc2n(-c3ccc(F)cc3)c3ccccc3nc-2c1=O | 19.5 µM (inactive) | 17 µM (inactive) | 19.4 µM (inactive) | 19.8 µM (inactive) | 22.8 µM (inactive) | – | 20 µM (inactive) | 19.3 µM (inactive) | 2.89 µM (inactive)
NC(=O)c1ncn(C2OC(CO)C(O)C2O)c1NC(=S)NC(=O)c1ccccc1 (stereo not given) | > 100 µM (inactive) | > 100 µM (inactive) | – | > 100 µM (inactive) | > 100 µM (inactive) | – | > 100 µM (inactive) | – | > 100 µM (inactive)
CNC(=O)/C(=C/c1ccc(OC)cc1)c1cc(OC)c(OC)c(OC)c1 | 2.25 µM (inactive) | 0.516 µM (active) | > 71.1 µM (inactive) | 1.28 µM (inactive) | 4.43 µM (inactive) | 7.45 µM (inactive) | 4.94 µM (inactive) | 4.95 µM (inactive) | 1.74 µM (inactive)
Nc1ncnc2c1ncn2COC/C=C/I | > 100 µM (inactive) | > 100 µM (inactive) | 14 µM (inactive) | – | > 100 µM (inactive) | > 100 µM (inactive) | > 100 µM (inactive) | > 100 µM (inactive) | > 100 µM (inactive)
COc1cc(CCc2ccc(OCCN(C)C)cc2)cc(OC)c1OC | > 100 µM (inactive) | > 100 µM (inactive) | > 100 µM (inactive) | 76.9 µM (inactive) | 77.6 µM (inactive) | 88.7 µM (inactive) | > 100 µM (inactive) | 38.5 µM (inactive) | > 100 µM (inactive)
CCN(CC)CCSc1nc2cccc([N+](=O)[O-])c2[nH]1 | – | > 100 µM (inactive) | – | – | > 100 µM (inactive) | > 100 µM (inactive) | > 100 µM (inactive) | > 100 µM (inactive) | > 100 µM (inactive)
Cc1cc(C)nc(NS(=O)(=O)c2ccc(Nc3c4ccccc4nc4c(C(=O)N5CCN(CCOS(C)(=O)=O)CC5)ccc(Cl)c34)cc2)n1 | > 100 µM (inactive) | > 100 µM (inactive) | – | > 100 µM (inactive) | – | > 100 µM (inactive) | > 100 µM (inactive) | > 100 µM (inactive) | > 100 µM (inactive)
COC(=O)c1cc(CNCCc2c[nH]c3ccccc23)on1 | > 100 µM (inactive) | > 100 µM (inactive) | – | > 100 µM (inactive) | > 100 µM (inactive) | > 100 µM (inactive) | – | 23.1 µM (inactive) | > 100 µM (inactive)
CC1=C(Oc2ccccc2)C(CCC(=O)O)c2c(O)cc(Cl)c(O)c21 (stereo not given) | > 100 µM (inactive) | > 100 µM (inactive) | – | > 100 µM (inactive) | – | > 100 µM (inactive) | > 100 µM (inactive) | > 100 µM (inactive) | > 100 µM (inactive)
O=C(O)CCC(=O)N1c2ccccc2CC1c1c[nH]c2ccccc12 (stereo not given) | – | > 100 µM (inactive) | > 100 µM (inactive) | > 100 µM (inactive) | > 100 µM (inactive) | – | > 100 µM (inactive) | > 100 µM (inactive) | > 100 µM (inactive)
Cc1cc(N(CCC#N)CCC#N)ccc1/C=C(\NC(=O)/C=C/c1ccccc1)NC(=O)Nc1ccccc1C | 78.3 µM (inactive) | > 100 µM (inactive) | – | > 100 µM (inactive) | 47.6 µM (inactive) | 84.1 µM (inactive) | 51.5 µM (inactive) | > 10 µM (inactive) | > 100 µM (inactive)
C=C1CCCC(C)(C)[C@@H]1CC/C(C)=C/Cn1c2cccc(=O)c-2nc2ccccc21 | 1.26 µM (inactive) | 1.48 µM (inactive) | 7.1 µM (inactive) | – | – | – | – | 2.29 µM (inactive) | 1.26 µM (inactive)
